From ChEMBL document CHEMBL3882728, “Amino-substituted quinazoline derivatives as inhibitors of Beta-catenin/TCF-4 pathway and cancer treatment agents” (2009)
pIC50: −log10 of the molar value.

Assay: Cytotoxicity against human SV5A8 cells expressing SV40 binding sites driving firefly/renilla luciferase reporter gene after 24 hrs by luminometer
Type: cell-based
Conditions: SV5A8, 24 h

| Structure (SMILES) | pIC50 |
| --- | --- |
| CNc1nc(NCc2ccc(NC(=O)c3ccc(Cl)cc3F)cc2)c2cc(C)ccc2n1 | < 5.56 |
| Cc1ccc2nc(N(C)C)nc(NCc3ccc(NC(=O)c4ccc(F)cc4)cc3)c2c1 | 4.93 to 5.24 |
| Cc1cc(C)c2nc(N3CCN[C@@H](C)C3)nc(NCc3ccc(NC(=O)c4ccc(F)cc4)cc3)c2c1 | < 5.30 |
| CNc1nc(NCc2ccc(NC(=O)c3cccnc3)cc2)c2cc([N+](=O)[O-])ccc2n1 | < 4.63 |
| Cc1ccc2c(NCc3ccc(NC(=O)C4CCN(Cc5ccccc5)CC4)cc3)nc(N3CCC3)nc2c1 | 4.76 to 5.02 |
| CNc1nc(NCc2ccc(NC(=O)c3ccc(Cl)nc3)cc2)c2cccc(C)c2n1 | 4.67 to 5.54 |
